Test results taken from US20030172478A1, “Bipyrrolinonylidene-type compound, colorant therewith, and method of producton thereof” (DAINIPPON INK AND CHEMICALS, INC., priority 2002, published 2003).

Legend:
[1] = solubility of the products in solvents; type: physicochemical
[2] = background statement; cited from earlier work

solubility in dimethyl sulfoxide ([1]; solvent dimethyl sulfoxide) | solubility in dimethylformamide ([1]; solvent dimethylformamide) | solubility in ethanol ([1]; solvent ethanol) | SMILES | solubility in water and organic solvents [2]
soluble | soluble | slightly soluble | CCOC(=O)C1=C(c2ccccc2)NC(=O)/C1=C1/C(=O)NC(c2ccccc2)=C1C(=O)OCC [diethyl bipyrrolinonylidenedicarboxylate] | 
 |  |  | O=C1NC(c2ccccc2)=C/C1=C1/C=C(c2ccccc2)NC1=O [formula (b), bipyrrolinonylidene] | poor solubility
